Source: patent publication US20260262643A1, “HERBICIDAL BENZOXAZINES” (FMC CORPORATION, priority 2022, published 2026)

Columns and labels:
green foxtail [1] = experiment: Test C postemergence; format: in vivo, Setaria viridis; conditions: 10 days, 0 to 100 scale (0 no effect, 100 complete control)
Procedure, shortened: (§1)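 Visual injury ratings on a 0–100 scale (100 = complete control) were made against untreated controls 10 days after treatment in the greenhouse. Compounds, formulated with surfactant in non-phytotoxic solvent, were sprayed on soil preemergence or onto one- to two-leaf plants 2–10 cm tall postemergence.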

kochia [2] = experiment: Test C postemergence; format: in vivo, Bassia scoparia; conditions: 10 days, 0 to 100 scale (0 no effect, 100 complete control)
Procedure, shortened: as §1

sedge, umbrella = experiment: Test D flooded paddy test; format: in vivo, Cyperus difformis; conditions: 250 g ai/ha, applied to paddy water, visual rating after 13 to 14 days, scale 0 to 100 (0 no effect, 100 complete control)
Procedure, shortened: (§2)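 Seedlings reached the 2-leaf stage, then pots were flooded to 3 cm over the soil surface. Compound was applied into the water, depth was maintained, and plants stayed in the greenhouse 13 to 14 days before visual scoring (0–100) relative to controls.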

wheat [3] = experiment: Test C postemergence; format: in vivo, Triticum aestivum; conditions: 10 days, 0 to 100 scale (0 no effect, 100 complete control)
Procedure, shortened: as §1

ducksalad = experiment: Test D flooded paddy test; format: in vivo, Heteranthera limosa; conditions: 250 g ai/ha, applied to paddy water, visual rating after 13 to 14 days, scale 0 to 100 (0 no effect, 100 complete control)
Procedure, shortened: as §2

rice = experiment: Test D flooded paddy test; format: in vivo, Oryza sativa; conditions: 250 g ai/ha, applied to paddy water, visual rating after 13 to 14 days, scale 0 to 100 (0 no effect, 100 complete control)
Procedure, shortened: as §2

barnyardgrass [4] = experiment: Test C postemergence; format: in vivo, Echinochloa crusgalli; conditions: 10 days, 0 to 100 scale (0 no effect, 100 complete control)
Procedure, shortened: as §1

wheat [5] = experiment: Test C preemergence; format: in vivo, Triticum aestivum; conditions: preemergence, 0 to 100 scale (0 no effect, 100 complete control)
Procedure, shortened: as §1

blackgrass [6] = experiment: Test C postemergence; format: in vivo, Alopecurus myosuroides; conditions: 10 days, 0 to 100 scale (0 no effect, 100 complete control)
Procedure, shortened: as §1

barnyardgrass [7] = experiment: Test D flooded paddy test; format: in vivo, Echinochloa crus-galli; conditions: 250 g ai/ha, applied to paddy water, visual rating after 13 to 14 days, scale 0 to 100 (0 no effect, 100 complete control)
Procedure, shortened: as §2

corn [8] = experiment: Test C preemergence; format: in vivo, Zea mays; conditions: preemergence, 0 to 100 scale (0 no effect, 100 complete control)
Procedure, shortened: as §1

soybean [9] = experiment: Test C preemergence; format: in vivo, Glycine max; conditions: preemergence, 0 to 100 scale (0 no effect, 100 complete control)
Procedure, shortened: as §1

ryegrass, Italian [10] = experiment: Test C preemergence; format: in vivo, Lolium multiflorum; conditions: preemergence, 0 to 100 scale (0 no effect, 100 complete control)
Procedure, shortened: as §1

horseweed = experiment: Test C postemergence; format: in vivo, Erigeron canadensis; conditions: 10 days, 0 to 100 scale (0 no effect, 100 complete control)
Procedure, shortened: as §1

ryegrass, Italian [11] = experiment: Test C postemergence; format: in vivo, Lolium multiflorum; conditions: 10 days, 0 to 100 scale (0 no effect, 100 complete control)
Procedure, shortened: as §1

green foxtail [12] = experiment: Test C preemergence; format: in vivo, Setaria viridis; conditions: preemergence, 0 to 100 scale (0 no effect, 100 complete control)
Procedure, shortened: as §1

oat, wild [13] = experiment: Test C preemergence; format: in vivo, Avena fatua; conditions: preemergence, 0 to 100 scale (0 no effect, 100 complete control)
Procedure, shortened: as §1

corn [14] = experiment: Test C postemergence; format: in vivo, Zea mays; conditions: 10 days, 0 to 100 scale (0 no effect, 100 complete control)
Procedure, shortened: as §1

kochia [15] = experiment: Test C preemergence; format: in vivo, Bassia scoparia; conditions: preemergence, 0 to 100 scale (0 no effect, 100 complete control)
Procedure, shortened: as §1

barnyardgrass [16] = experiment: Test C preemergence; format: in vivo, Echinochloa crusgalli; conditions: preemergence, 0 to 100 scale (0 no effect, 100 complete control)
Procedure, shortened: as §1

oat, wild [17] = experiment: Test C postemergence; format: in vivo, Avena fatua; conditions: 10 days, 0 to 100 scale (0 no effect, 100 complete control)
Procedure, shortened: as §1

soybean [18] = experiment: Test C postemergence; format: in vivo, Glycine max; conditions: 10 days, 0 to 100 scale (0 no effect, 100 complete control)
Procedure, shortened: as §1

blackgrass [19] = experiment: Test C preemergence; format: in vivo, Alopecurus myosuroides; conditions: preemergence, 0 to 100 scale (0 no effect, 100 complete control)
Procedure, shortened: as §1

pigweed, palmer [20] = experiment: Test C preemergence; format: in vivo, Amaranthus palmeri; conditions: preemergence, 0 to 100 scale (0 no effect, 100 complete control)
Procedure, shortened: as §1

ragweed = experiment: Test C postemergence; format: in vivo, Ambrosia artemisiifolia; conditions: 10 days, 0 to 100 scale (0 no effect, 100 complete control)
Procedure, shortened: as §1

galium = experiment: Test C postemergence; format: in vivo, Galium aparine; conditions: 10 days, 0 to 100 scale (0 no effect, 100 complete control)
Procedure, shortened: as §1

pigweed, palmer [21] = experiment: Test C postemergence; format: in vivo, Amaranthus palmeri; conditions: 10 days, 0 to 100 scale (0 no effect, 100 complete control)
Procedure, shortened: as §1

Cc1cccc2c1OC(C(F)(F)F)CN2C(=O)c1cccc(-n2cnc(C(C)C)n2)c1 (single isomer, unassigned) [Compound 302]
Plant response rating, Foxtail, Green (green foxtail [1]; 500 g ai/ha, postemergence): 10
Plant response rating, Foxtail, Green (green foxtail [1]; Postemergence, 125 g ai/ha): 0
Plant response rating, Kochia (kochia [2]; 500 g ai/ha, postemergence): 70
Plant response rating, Kochia (kochia [2]; Postemergence, 125 g ai/ha): 20
Plant response rating, Sedge, Umbrella (Flood) (sedge, umbrella): 0
Plant response rating, Wheat (wheat [3]; 500 g ai/ha, postemergence): 10
Plant response rating, Wheat (wheat [3]; Postemergence, 125 g ai/ha): 10
Plant response rating, Ducksalad (Flood) (ducksalad): 0
Plant response rating, Rice (Flood) (rice): 0
Plant response rating, Barnyardgrass (barnyardgrass [4]; 500 g ai/ha, postemergence): 10
Plant response rating, Barnyardgrass (barnyardgrass [4]; Postemergence, 125 g ai/ha): 10
Wheat plant response rating (wheat [5]; 500 g ai/ha): 40
Wheat plant response rating (wheat [5]; Test C, 125 g ai/ha): 20
Plant response rating, Blackgrass (blackgrass [6]; 500 g ai/ha, postemergence): 30
Plant response rating, Blackgrass (blackgrass [6]; Postemergence, 125 g ai/ha): 0
Plant response rating, Barnyardgrass (Flood) (barnyardgrass [7]): 0
Corn plant response rating (corn [8]; 500 g ai/ha): 0
Soybean plant response rating (soybean [9]; 500 g ai/ha): 20
Soybean plant response rating (soybean [9]; Test C, 125 g ai/ha): 10
Ryegrass, Italian plant response rating (ryegrass, Italian [10]; 500 g ai/ha): 100
Ryegrass, Italian plant response rating (ryegrass, Italian [10]; Test C, 125 g ai/ha): 80
Plant response rating, Horseweed (horseweed; 500 g ai/ha, postemergence): 50
Plant response rating, Horseweed (horseweed; Postemergence, 125 g ai/ha): 60
Plant response rating, Ryegrass, Italian (ryegrass, Italian [11]; 500 g ai/ha, postemergence): 50
Plant response rating, Ryegrass, Italian (ryegrass, Italian [11]; Postemergence, 125 g ai/ha): 0
Foxtail, Green plant response rating (green foxtail [12]; 500 g ai/ha): 80
Foxtail, Green plant response rating (green foxtail [12]; Test C, 125 g ai/ha): 20
Oat, Wild plant response rating (oat, wild [13]; 500 g ai/ha): 80
Oat, Wild plant response rating (oat, wild [13]; Test C, 125 g ai/ha): 0
Plant response rating, Corn (corn [14]; 500 g ai/ha, postemergence): 10
Plant response rating, Corn (corn [14]; Postemergence, 125 g ai/ha): 10
Kochia plant response rating (kochia [15]; 500 g ai/ha): 80
Kochia plant response rating (kochia [15]; Test C, 125 g ai/ha): 0
Barnyardgrass plant response rating (barnyardgrass [16]; 500 g ai/ha): 50
Barnyardgrass plant response rating (barnyardgrass [16]; Test C, 125 g ai/ha): 0
Plant response rating, Oat, Wild (oat, wild [17]; 500 g ai/ha, postemergence): 10
Plant response rating, Oat, Wild (oat, wild [17]; Postemergence, 125 g ai/ha): 0
Plant response rating, Soybean (soybean [18]; 500 g ai/ha, postemergence): 90
Plant response rating, Soybean (soybean [18]; Postemergence, 125 g ai/ha): 80
Blackgrass plant response rating (blackgrass [19]; 500 g ai/ha): 60
Blackgrass plant response rating (blackgrass [19]; Test C, 125 g ai/ha): 30
Pigweed, Palmer plant response rating (pigweed, palmer [20]; 500 g ai/ha): 80
Pigweed, Palmer plant response rating (pigweed, palmer [20]; Test C, 125 g ai/ha): 70
Plant response rating, Ragweed (ragweed; 500 g ai/ha, postemergence): 20
Plant response rating, Ragweed (ragweed; Postemergence, 125 g ai/ha): 20
Plant response rating, Galium (galium; 500 g ai/ha, postemergence): 90
Plant response rating, Pigweed, Palmer (pigweed, palmer [21]; 500 g ai/ha, postemergence): 20
Plant response rating, Pigweed, Palmer (pigweed, palmer [21]; Postemergence, 125 g ai/ha): 10

CCOc1ncn(-c2cccc(C(=O)N3C[C@H](C)Oc4c(Cl)cccc43)c2)n1 [Compound 311]
Plant response rating, Foxtail, Green (green foxtail [1]; 500 g ai/ha, postemergence): 40
Plant response rating, Foxtail, Green (green foxtail [1]; Postemergence, 125 g ai/ha): 30
Plant response rating, Kochia (kochia [2]; 500 g ai/ha, postemergence): 70
Plant response rating, Kochia (kochia [2]; Postemergence, 125 g ai/ha): 30
Plant response rating, Sedge, Umbrella (Flood) (sedge, umbrella): 0
Plant response rating, Wheat (wheat [3]; 500 g ai/ha, postemergence): 10
Plant response rating, Wheat (wheat [3]; Postemergence, 125 g ai/ha): 10
Plant response rating, Ducksalad (Flood) (ducksalad): 0
Plant response rating, Rice (Flood) (rice): 0
Plant response rating, Barnyardgrass (barnyardgrass [4]; 500 g ai/ha, postemergence): 40
Plant response rating, Barnyardgrass (barnyardgrass [4]; Postemergence, 125 g ai/ha): 10
Wheat plant response rating (wheat [5]; 500 g ai/ha): 20
Wheat plant response rating (wheat [5]; Test C, 125 g ai/ha): 0
Plant response rating, Blackgrass (blackgrass [6]; 500 g ai/ha, postemergence): 90
Plant response rating, Blackgrass (blackgrass [6]; Postemergence, 125 g ai/ha): 0
Plant response rating, Barnyardgrass (Flood) (barnyardgrass [7]): 0
Corn plant response rating (corn [8]; 500 g ai/ha): 0
Corn plant response rating (corn [8]; Test C, 125 g ai/ha): 0
Soybean plant response rating (soybean [9]; 500 g ai/ha): 10
Soybean plant response rating (soybean [9]; Test C, 125 g ai/ha): 0
Ryegrass, Italian plant response rating (ryegrass, Italian [10]; 500 g ai/ha): 80
Ryegrass, Italian plant response rating (ryegrass, Italian [10]; Test C, 125 g ai/ha): 30
Plant response rating, Horseweed (horseweed; 500 g ai/ha, postemergence): 50
Plant response rating, Horseweed (horseweed; Postemergence, 125 g ai/ha): 50
Plant response rating, Ryegrass, Italian (ryegrass, Italian [11]; 500 g ai/ha, postemergence): 30
Plant response rating, Ryegrass, Italian (ryegrass, Italian [11]; Postemergence, 125 g ai/ha): 10
Foxtail, Green plant response rating (green foxtail [12]; 500 g ai/ha): 100
Foxtail, Green plant response rating (green foxtail [12]; Test C, 125 g ai/ha): 90
Oat, Wild plant response rating (oat, wild [13]; 500 g ai/ha): 30
Oat, Wild plant response rating (oat, wild [13]; Test C, 125 g ai/ha): 0
Plant response rating, Corn (corn [14]; 500 g ai/ha, postemergence): 40
Plant response rating, Corn (corn [14]; Postemergence, 125 g ai/ha): 10
Kochia plant response rating (kochia [15]; 500 g ai/ha): 80
Kochia plant response rating (kochia [15]; Test C, 125 g ai/ha): 20
Barnyardgrass plant response rating (barnyardgrass [16]; 500 g ai/ha): 60
Barnyardgrass plant response rating (barnyardgrass [16]; Test C, 125 g ai/ha): 0
Plant response rating, Oat, Wild (oat, wild [17]; 500 g ai/ha, postemergence): 10
Plant response rating, Oat, Wild (oat, wild [17]; Postemergence, 125 g ai/ha): 0
Plant response rating, Soybean (soybean [18]; 500 g ai/ha, postemergence): 100
Plant response rating, Soybean (soybean [18]; Postemergence, 125 g ai/ha): 70
Blackgrass plant response rating (blackgrass [19]; 500 g ai/ha): 80
Blackgrass plant response rating (blackgrass [19]; Test C, 125 g ai/ha): 10
Pigweed, Palmer plant response rating (pigweed, palmer [20]; 500 g ai/ha): 100
Pigweed, Palmer plant response rating (pigweed, palmer [20]; Test C, 125 g ai/ha): 50
Plant response rating, Ragweed (ragweed; 500 g ai/ha, postemergence): 40
Plant response rating, Ragweed (ragweed; Postemergence, 125 g ai/ha): 0
Plant response rating, Galium (galium; 500 g ai/ha, postemergence): 90
Plant response rating, Galium (galium; Postemergence, 125 g ai/ha): 90
Plant response rating, Pigweed, Palmer (pigweed, palmer [21]; 500 g ai/ha, postemergence): 60
Plant response rating, Pigweed, Palmer (pigweed, palmer [21]; Postemergence, 125 g ai/ha): 20
